Results: patent US20240082232A1, “COMPOSITIONS AND METHODS FOR TREATMENT OF OVARIAN AND BREAST CANCER” (Board of Regents, The University of Texas System, priority 2021, published 2024)
“Also recorded” adds a separate entry of the source.

What was measured:
[1] = test system: MEF2D binding to FANCD2, EXO1, XRCC4; assay: ChIP-qPCR of MEF2D binding to promoter/enhancer regions; assay type: cell-based, human; details: for MEF2D binding to EXO1 and XRCC4 promoter/enhancer regions: all cell lines tested; for MEF2D-association with the FANCD2 promoter/enhancer region: all four cell lines assessed
Protocol: (A) Alterations affecting MEF2 family genes in ovarian and breast cancer by TCGA analysis. […] Data and plots were obtained using cBioPortal (21, 58, 59). (B) MEF2D consensus DNA motifs. The MEF2 motif is enriched in MEF2D-binding sites in SKOv3 cells. (C) GO analysis of MEF2D-bound genes. […] (E) Chip and RT-qPCR analysis of FANCD2, EXO1, and XRCC4 genes. […] Chip pull-down samples were analyzed by RT-qPCR.
(A) MEF2D-binding sites in human ovarian cancer cells. (B) Chip analysis of FANCD2, EXO1, and XRCC4 genes. […] Chip pull-down samples were analyzed by RT-qPCR using as indicated.
Chip assays were performed using the Magna Chip A Kit (Millipore). […] Nuclei were isolated and sonicated to obtain 200-1000 bp DNA fragments using the QSONICA sonicator for 30 cycles with 10 seconds pulses at 100% amplitude with 2 min of incubation on ice between pulses. For individual ChIP assay, 100 μg of soluble chromatin per sample was immunoprecipitated with 8 μg of mouse IgG control antibody (Santa Cruz, sc-2025), 8 μg of rabbit control antibody (Millipore, PP64B), 8 μg of MEF2D antibody (Santa Cruz, sc-27115 3×), 8 μg of RNA polymerase II antibody (Abcam, ab817), 6 μg of Histone H3 (acetyl K27) antibody (Abcam, ab45173) or 6 μg of Histone H3 (tri methyl K4) (Abcam, ab8580). For ChIP-Sequence, 500 μg of chromatin per sample was immunoprecipitated with 40 μg of MEF2D antibody. Input determined from 1% of the cell lysate was used as a negative control. Purified and enriched DNA was quantified using real time quantitative PCR (RT-qPCR) with the following primers. FANCD2D Forward, 5′-ACCTGTTATGAGCGTGAAGTC-3′ (SEQ ID NO:1) and Reverse, 5′-GATGCAGGACTGTGCATTAGA-3′ (SEQ ID NO:2); EXD2 Forward, 5′-GGTCTGGCCTAAGGTTTCTTC-3′ (SEQ ID NO:3) and Reverse, 5′-CAG TTC ACG CTG GGT TCT T-3′ (SEQ ID NO:4); and XRCC Forward, 5′-GCAGTCTTCCTAGTCTCAACT-3′ (SEQ ID NO:5) and Reverse, 5′-TTGCCCTTCTAGGAGCTTAATG-3′ (SEQ ID NO:6). RT-qPCR was performed using iTaq Universal SYBR Green Supermix (Bio-Rad, 172-5124) in a CFX Connect RT-qPCR (Bio-Rad). Thermal cycling condition was as follows: 94° C. for 10 min, followed by 40 cycles of 94° C. for 20 sec, and 60° C. for 60 sec. Analysis of qPCR data was calculated using fold enrichment method (The ChIP signals are divided by the IgG antibody signals, 2^-DDCt).

[2] = test system: ovarian cancer cell lines; assay: cells; details: read-out: IC50, growth of ovarian cancer cell lines
[3] = test system: MEF2D binding sites in SKOv3 ovarian cancer cells; assay type: cell-based, human
Protocol: Genome-wide binding of MEF2D in SKOv3 ovarian cancer cells was then examined using chromatin immunoprecipitation sequencing (Chip-seq). […] To identify a MEF2D consensus recognition sequence in ovarian cancer cells, de novo-motif discovery analysis was performed.
Chip assays were performed using the Magna Chip A Kit (Millipore). […] Nuclei were isolated and sonicated to obtain 200-1000 bp DNA fragments using the QSONICA sonicator for 30 cycles with 10 seconds pulses at 100% amplitude with 2 min of incubation on ice between pulses. […] For ChIP-Sequence, 500 μg of chromatin per sample was immunoprecipitated with 40 μg of MEF2D antibody. Input determined from 1% of the cell lysate was used as a negative control. Purified and enriched DNA was quantified using real time quantitative PCR (RT-qPCR) with the following primers. […] Analysis of qPCR data was calculated using fold enrichment method (The ChIP signals are divided by the IgG antibody signals, 2^-DDCt).
Sequencing was performed by the Sequencing and Microarray Facility (SMF) at MD Anderson Cancer Center. […] Libraries were amplified by 8 cycles of PCR and then size distribution was assessed using the 4200 TapeStation High Sensitivity D1000 ScreenTape (Agilent Technologies) and quantified using the Qubit dsDNA HS Assay Kit (ThermoFisher). […] The raw reads were first preprocessed to remove sequencing adapters and low quality reads. […]

[4] = test system: SKOv3, OVCAR8, HCC5032, MDA-MB-231 cells; assay: DNA damage: γ-H2AX immunofluorescence and comet assay; assay type: cell-based, human
Protocol: (A) The Heatmap representation unsupervised hierarchical clustering of differentially expressed genes associated with DNA repair. […] (B) Analysis of DNA Repair and apoptosis genes. BRCA2, EXO1, FANCD2, LIG4, XRCC4, BAX, BCL2, CASP7, and TRADD were analyzed using RT-PCR in OVCAR8 ovarian and MDA-MB-231 breast cancer cells. […] (C) Quantification of DNA damage (γ-H2AX). Endogenous γ-H2AX was stained with anti-γ-H2AX antibody in the cells treated with single agent or combined for 8 hrs as indicated. […] Red indicates γ-H2AX and Blue-DAPI indicates nuclear stain. Representative images are presented (right). Bar 20 […]. Red γ-H2AX dots were quantified with OLYMPUS CellSens Dimension software. […] Bar 20 μm. (D) Detection of apoptosis using Annexin V/Propidium iodide (PI) staining.
(A) The heatmap of unsupervised hierarchical clustering of differently expressed genes associated with apoptosis. […] (B) Analysis of DNA repair and apoptosis gene. […] Representative experiments were from two independent experiment and 3 technical repeats per experiments. (C) Quantification of DNA damage using comet assay. […] Slides were then stained with Vista Green DNA dye and viewed using Olympus fluorescence microscope with FITC filter. Olive Tail Moment was measured using CaspLab1.2.3β2 software. […] Representative experiments were from three independent experiments with a minimum of 50 cells.
Cells were trypsinized and resuspended at 2×10^5/mL in cold PBS without Ca^2+ and Mg^2+. Cells were mixed with pre-warmed comet agarose at 1:10 (v/v) ratio. 10 uL of cell agarose mixture was plated onto comet slides pre-coated with 75 uL of agarose and chilled at 4° C. for 15 min to set. Cells were lysed in 25 mL of Lysis buffer at 4° C. for 2 hrs and washed with alkaline solution (pH 10). Comet slides were electrophoresed in cold alkaline solution at 20V for 15 min. […] Experiments were run in triplicate and Olive Tail Moment was measured using CaspLab1.2.β2 software (CaspLab.com). […] 50-200 Cells were measured for each treatment and experiments were repeated twice independently to ensure reproducibility. […]

[5] = Toxicology / pre-clinical studies, hematologic toxicity; assay type: in vivo
organoid = assay: Organoid growth; assay type: cell-based
Protocol: To evaluate additive or synergistic interactions, a combination Index (CI value) was calculated with CalcuSyn software.

[6] = test system: MDA-MB-231 orthotopic xenografts; assay: MDA-MB-231 orthotopic xenografts (paclitaxel sensitivity study); assay type: in vivo, mice
MDA-MB-231 xenografts = assay: MDA-MB-231 mammary fat pad xenograft; assay type: in vivo, mice; details: 5 weeks treatment
Protocol: (§1) (^nsp>0.05, *p<0.05; ** p<0.01). […] (^nsp>0.05, *p<0.05; ** p<0.01). […] Scale bar, 50 μM.
Forty female nu/nu mice were injected with 0.8×10^6 MDA-MB-231 cells into their fourth mammary fat pads. […] Tumors were measured every week as noted above (SKOv3 xenograft models).

[7] = test system: OVCAR8 and MDA-MB-231 xenograft tumors; assay: IHC of xenograft tumors at study termination; assay type: in vivo, mice
Protocol: as §1
Tumors growing as xenografts were collected for histology with H&E and IHC staining. Routine H&E staining detected high-grade ovarian cancer in ovarian cancer xenograft models and breast cancer morphology in the breast cancer xenograft model, respectively. IHC of OVCAR8 and MDA-MB-231 xenograft tumors at study termination recapitulated in vitro studies.
Formalin fixed and paraffin embedded mouse tissue sections were deparaffinized and rehydrated in gradient ethanol solutions. Antigens were retrieved in Rodent Decloaker (BioCare Medical, RD913M) and microwaved twice in an EZ Retriever System V3 (BioGenex) at 95° C. for 5 min. Tissues were blocked in PeroxAbolish (BioCare Medical, PXA969M) for 30 min, Rodent Block M (BioCare Medical, RBM961L) for 30 min, and 5% BSA in PBS for 30 min Tissues were incubated with primary antibody as indicated overnight at 4° C. VisUCyte HRP Polymer IgG (R&D Systems, VC001-025 for mouse, VC003-025 for rabbit) was applied for 30 min at room temperature followed by DAB chromogenesis (BioCare Medical, BDB2004L). Tissues were counter-stained with CAT hematoxylin (Thermo Fisher, CATHE-M) for 20 sec. The slides were then dehydrated through gradient ethanol solutions and two passes of xylene and sealed with Permount (Thermo Fisher, SP15-100).

SKOv3 xenografts = assay: SKOv3 subcutaneous xenograft; assay type: in vivo, mice; details: oral, five times per week, 4 weeks
Protocol: as §1

[8] = test system: SKOv3 and OVCAR8 SIK2 knock-out cells; assay: Olaparib dose-response in SIK2 knock-out cells; details: SIK2 knock-out by CRISPR/Cas9
Protocol: (§2) Representative experiments were from two independent experiments with four technical repeats per experiment. (B) Dose-response curves of olaparib in paired cancer cell lines with or without knockout of SIK2 (top) and with or without stable transfection of SIK2 (bottom). The median inhibitory concertation (IC50) of olaparib was calculated using GraphPad Prism 8. Representative experiments are from two independent experiments with four technical repeats per experiment. Western analysis confirmed either SIK2 knock out (top) or overexpression (bottom).
(§3) To exclude potential off-target effects of SIK2 inhibitors, SIK2 was knocked down by CRISPR/Cas9 and stable ectopic expression of SIK2 was established in SKOv3 and OVCAR8 ovarian cancer cells.
OVCAR8 and SKOv3 SIK2 knock out cell lines were established using CRISPR/Cas9 technology known in the art. Briefly, a plasmid with GFP containing Cas9 and the sgRNA expression were transfected to cancer cells. […] Transfected cells were isolated by FACS for single-cell culture 2-3 days after transfection, and then the cells were expanded and harvested for detection of the protein expression using western analysis.

DT40 PARP-1 −/− cells = assay: Dose-response in DT40 PARP-1 -/- cells; details: cells lacking PARP1/2
Protocol: Representative data are from three independent experiments with 4 technical repeats per experiment. […] The IC50 indicated on the curves was calculated using GraphPad Prism 8.
To further test this possibility, DT40 PARP-1 −/−cells that lack PARP enzyme activity (avian cells lack PARP2) were treated with SIK2 inhibitors or olaparib.

[9] = test system: SKOv3 and OVCAR8 cells with stable ectopic expression of SIK2; assay: Olaparib dose-response in cells with stable ectopic SIK2 expression
Protocol: as §2, §3

Row | SMILES | MEF2D binding to EXO1 and XRCC4 promoter/enhancer regions [1] | MEF2D-association with the FANCD2 promoter/enhancer region [1] | IC50 [2] [nM] | MEF2D binding sites [3] [binding sites] | levels of γ-H2AX and tailed DNA [4] | hematologic toxicity [5] | organoid growth (organoid) | survival of mice [6] | xenograft growth [6] | tumor burden / tumor volume (MDA-MB-231 xenografts) | nuclear p-HDAC5 staining [7] | nuclear γ-H2AX staining [7] | tumor growth (SKOv3 xenografts) | IC50 in SIK2 deficient cells compared to control cells [8] | sensitivity of DT40 PARP-1 −/− cells (DT40 PARP-1 −/− cells) | IC50 in cells with stable ectopic expression of SIK2 [9]
1 | COc1c(F)cc(F)cc1-c1c[nH]c2ncc(-c3cnn(C4CCNCC4)c3)cc12 [Compound A, 3-(3,5-difluoro-2-methoxyphenyl)-5-(1-(piperidin-4-yl)-1H-pyrazol-4-yl)-1H-pyrrolo[2,3-b]pyridine] | significantly decreased | decreased | 800 to 2600 | 36 | modestly increased | – | – | – | – | – | – | – | – | – | – | –
2 | COc1c(F)cc(F)cc1-c1c[nH]c2ncc(-c3cnn(C4CCN(S(C)(=O)=O)CC4)c3)cc12 [Compound B, 3-(3,5-difluoro-2-methoxyphenyl)-5-(1-(1-(methylsulfonyl)piperidin-4-yl)-1H-pyrazol-4-yl)-1H-pyrrolo[2,3-b]pyridine] | significantly decreased | decreased | 800 to 2600 | – | modestly increased | minimal hematologic toxicity; also recorded: little or no hematopoietic toxicity | inhibits organoid growth inducing cell death | prolonged the survival | inhibited xenograft growth | tumor burden remained unchanged | decreased | increased nuclear γ-H2AX staining | – | – | – | –
3 | O=C(c1cc(Cc2n[nH]c(=O)c3ccccc23)ccc1F)N1CCN(C(=O)C2CC2)CC1 [Olaparib, reference compound] | – | – | – | – | modestly increased | – | – | – | – | tumor burden remained unchanged | not | – | significantly inhibited tumor growth | lower IC50 | resisted | increased IC50
